Test results: patent publication US12479895B2, “C-terminal CDNF and MANF fragments, pharmaceutical compositions comprising same and uses thereof” (MyNeuroCure Oy, priority 2018, dated 2025)

What was measured:
[1] = system: rat 6-OHDA model of PD; assay: Neurorestoration study in 6-OHDA model of PD in rats; format: in vivo
[2] = system: dopamine neurons; assay: Survival of TH-positive dopamine neurons in dissociated midbrain floor cultures; format: cell-based, mouse; conditions: for Fold change of survived neurons compared to neurons grown without growth factors: data of Table 3 divided by values of no factor
Method in brief: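 Dissociated E13.5 NMRI mouse midbrain floor neurons grown five days in DMEM/F12 with N2, with polypeptides at a range of concentrations, GDNF (100 ng/ml), or nothing. TH-immunopositive neurons were counted by imaging. Values are a percentage of GDNF-maintained TH-positive neurons, as mean ± SEM from at least three independent cultures.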

[3] = system: ER stressed SCG neurons; assay: Survival of tunicamycin-treated (ER stressed) SCG sympathetic neurons after microinjection; format: cell-based, mice; conditions: for survived neurons as % compared to neurons grown in the presence of NGF: microinjected into cytoplasm, CDNF (400); for Fold change of survived neurons compared to neurons injected with PBS: data of Table 1 divided by values of PBS
Method in brief: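 Newborn mouse SCG neurons grown 5-6 days with 30 ng/ml NGF, then microinjected with CDNF (FL or C-terminal) plasmids (10 ng/ul, EGFP reporter) or proteins (200 ng/ul, Dextran Texas Red). Tunicamycin (2 μM) added next day. Fluorescent survivors counted blindly after 3 days as % of initial; compared with vector or PBS (ANOVA/Dunnett).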

[4] = system: E14 dopamine neurons; assay: Internalization experiment on dopaminergic neurons; format: cell-based, Mouse; conditions: 30,000 cpm of iodinated protein, 37° C., 2 hr, acid wash
Experimental: Mouse E13.5 dopamine neurons grown on the 24 well plate in culture were incubated with 30,000 cpm of iodinated CDNF or C-CDNF per well at 37° C. 2 hr. The cells were transferred to ice and washed once with 0.5 ml of the ice cold media. Then cells were transferred to Eppendorf tubes and washed at 4° C. once with 0.2M acetic acid, 0.5M NaCl, pH 2.8. After centrifugation at 1000 g for 10 min cells were dissolved in 0.5 ml of 0.5 N NaOH and counted on the gamma counter.

[5] = Table 3A (FIG. 15), AVG, 1 ng/ml, 5 days
[6] = Table 3A (FIG. 15), AVG, 10 ng/ml, 5 days
[7] = Table 3A (FIG. 15), AVG, 100 ng/ml, 5 days
[8] = Table 3A (FIG. 15), AVG, 1000 ng/ml, 5 days
[9] = Table 3A (FIG. 15), exp1, 1 ng/ml, 5 days
[10] = Table 3A (FIG. 15), exp1, 10 ng/ml, 5 days
[11] = Table 3A (FIG. 15), exp1, 100 ng/ml, 5 days
[12] = Table 3A (FIG. 15), exp1, 1000 ng/ml, 5 days
[13] = Table 3A (FIG. 15), exp2, 1 ng/ml, 5 days
[14] = Table 3A (FIG. 15), exp2, 10 ng/ml, 5 days
[15] = Table 3A (FIG. 15), exp2, 100 ng/ml, 5 days
[16] = Table 3A (FIG. 15), exp2, 1000 ng/ml, 5 days
[17] = Table 3A (FIG. 15), exp3, 1 ng/ml, 5 days
[18] = Table 3A (FIG. 15), exp3, 10 ng/ml, 5 days
[19] = Table 3A (FIG. 15), exp3, 100 ng/ml, 5 days
[20] = Table 3A (FIG. 15), exp3, 1000 ng/ml, 5 days
[21] = Table 1A (FIG. 14), AVG of exp1-2, tunicamycin 2 μM
[22] = Table 1A (FIG. 14), exp1, tunicamycin 2 μM, counted after 3 days
[23] = Table 1A (FIG. 14), exp2, tunicamycin 2 μM, counted after 3 days

CKGC [MANF4, reference compound]
efficacy on amphetamine-induced rotations ([1]; infused into the striatum starting 2 weeks after 6-OHDA lesioning, rotations up to 12 weeks post lesioning): not effective

TLDLASVDLRKMRVAELKQILHSWGEECRACAE (listed as Homo sapiens) [pep15]
protection against 6-OHDA-induced impairment in motor imbalance (amphetamine-induced rotational behavior) ([1]; subcutaneous injections 50 μg twice a week for 4 weeks starting two weeks post-lesion, p<0.001 vs vehicle): effective
survived neurons as % compared to neurons grown in the presence of GDNF ([2]; Table 3B (FIG. 17), AVG, 1 ng/ml, 5 days): 73.72 % GDNF
survived neurons as % compared to neurons grown in the presence of GDNF ([2]; Table 3B (FIG. 17), AVG, 10 ng/ml, 5 days): 87.03 % GDNF
survived neurons as % compared to neurons grown in the presence of GDNF ([2]; Table 3B (FIG. 17), AVG, 100 ng/ml, 5 days): 93.53 % GDNF
survived neurons as % compared to neurons grown in the presence of GDNF ([2]; Table 3B (FIG. 17), AVG, 1000 ng/ml, 5 days): 86.15 % GDNF
protection of dopaminergic neurons in culture (result in words) ([2]; added to the culture medium, 5 days, TH-positive neurons counted): best protective effect
survived neurons as % compared to neurons grown in the presence of NGF ([3]; Table 1B (FIG. 16), exp1, tunicamycin 2 μM, counted after 3 days): 70.17 % NGF
survived neurons as % compared to neurons grown in the presence of NGF ([3]; Table 1B (FIG. 16), exp2, tunicamycin 2 μM, counted after 3 days): 61.81 % NGF
survived neurons as % compared to neurons grown in the presence of NGF ([3]; Table 1B (FIG. 16), exp3, tunicamycin 2 μM, counted after 3 days): 71.42 % NGF
rescue of ER stressed SCG neurons (result in words) ([3]; protein or peptide microinjected into the cytoplasm, tunicamycin 2 μM, living fluorescent neurons counted after 3 days): rescue

VDLRKMRVAELKQILHSWGEECRACAEKTDYVNLIQELAPKYA (listed as Homo sapiens) [pep6]
survived neurons as % compared to neurons grown in the presence of GDNF [2, 5]: 65.97 % GDNF
survived neurons as % compared to neurons grown in the presence of GDNF [2, 6]: 75.95 % GDNF
survived neurons as % compared to neurons grown in the presence of GDNF [2, 7]: 73.52 % GDNF
survived neurons as % compared to neurons grown in the presence of GDNF [2, 8]: 70.75 % GDNF
survived neurons as % compared to neurons grown in the presence of GDNF [2, 9]: 62.89 % GDNF
survived neurons as % compared to neurons grown in the presence of GDNF [2, 10]: 66.29 % GDNF
survived neurons as % compared to neurons grown in the presence of GDNF [2, 11]: 71.71 % GDNF
survived neurons as % compared to neurons grown in the presence of GDNF [2, 12]: 63.01 % GDNF
survived neurons as % compared to neurons grown in the presence of GDNF [2, 13]: 77.34 % GDNF
survived neurons as % compared to neurons grown in the presence of GDNF [2, 14]: 83.75 % GDNF
survived neurons as % compared to neurons grown in the presence of GDNF [2, 15]: 71.86 % GDNF
survived neurons as % compared to neurons grown in the presence of GDNF [2, 16]: 67.06 % GDNF
survived neurons as % compared to neurons grown in the presence of GDNF [2, 17]: 57.68 % GDNF
survived neurons as % compared to neurons grown in the presence of GDNF [2, 18]: 77.81 % GDNF
survived neurons as % compared to neurons grown in the presence of GDNF [2, 19]: 76.97 % GDNF
survived neurons as % compared to neurons grown in the presence of GDNF [2, 20]: 82.17 % GDNF
Fold change of survived neurons compared to neurons grown without growth factors ([2]; Table 4, AVG, 1 ng/ml): 1.07 fold
Fold change of survived neurons compared to neurons grown without growth factors ([2]; Table 4, AVG, 10 ng/ml): 1.23 fold
Fold change of survived neurons compared to neurons grown without growth factors ([2]; Table 4, AVG, 100 ng/ml): 1.19 fold
Fold change of survived neurons compared to neurons grown without growth factors ([2]; Table 4, AVG, 1000 ng/ml): 1.15 fold
Fold change of survived neurons compared to neurons grown without growth factors ([2]; Table 4, exp1, 1 ng/ml): 1.10 fold
Fold change of survived neurons compared to neurons grown without growth factors ([2]; Table 4, exp1, 10 ng/ml): 1.16 fold
Fold change of survived neurons compared to neurons grown without growth factors ([2]; Table 4, exp1, 100 ng/ml): 1.25 fold
Fold change of survived neurons compared to neurons grown without growth factors ([2]; Table 4, exp1, 1000 ng/ml): 1.10 fold
Fold change of survived neurons compared to neurons grown without growth factors ([2]; Table 4, exp2, 1 ng/ml): 1.23 fold
Fold change of survived neurons compared to neurons grown without growth factors ([2]; Table 4, exp2, 10 ng/ml): 1.33 fold
Fold change of survived neurons compared to neurons grown without growth factors ([2]; Table 4, exp2, 100 ng/ml): 1.14 fold
Fold change of survived neurons compared to neurons grown without growth factors ([2]; Table 4, exp2, 1000 ng/ml): 1.06 fold
Fold change of survived neurons compared to neurons grown without growth factors ([2]; Table 4, exp3, 1 ng/ml): 0.89 fold
Fold change of survived neurons compared to neurons grown without growth factors ([2]; Table 4, exp3, 10 ng/ml): 1.20 fold
Fold change of survived neurons compared to neurons grown without growth factors ([2]; Table 4, exp3, 100 ng/ml): 1.19 fold
Fold change of survived neurons compared to neurons grown without growth factors ([2]; Table 4, exp3, 1000 ng/ml): 1.27 fold
survived neurons as % compared to neurons grown in the presence of NGF [3, 21]: 78.47 % NGF
survived neurons as % compared to neurons grown in the presence of NGF [3, 22]: 81.94 % NGF
survived neurons as % compared to neurons grown in the presence of NGF [3, 23]: 75.00 % NGF
Fold change of survived neurons compared to neurons injected with PBS ([3]; Table 2, AVG): 2.14 Fold to PBS
Fold change of survived neurons compared to neurons injected with PBS ([3]; Table 2, exp1): 2.39 Fold to PBS
Fold change of survived neurons compared to neurons injected with PBS ([3]; Table 2, exp2): 1.89 Fold to PBS

VDLRKMRVAELKQILHSWGEECRACAEKTDYVNLIQELAPKYAATHPKTEL (listed as Homo sapiens) [pep5]
survived neurons as % compared to neurons grown in the presence of GDNF [2, 5]: 64.92 % GDNF
survived neurons as % compared to neurons grown in the presence of GDNF [2, 6]: 76.19 % GDNF
survived neurons as % compared to neurons grown in the presence of GDNF [2, 7]: 73.84 % GDNF
survived neurons as % compared to neurons grown in the presence of GDNF [2, 8]: 65.13 % GDNF
survived neurons as % compared to neurons grown in the presence of GDNF [2, 9]: 65.24 % GDNF
survived neurons as % compared to neurons grown in the presence of GDNF [2, 10]: 61.71 % GDNF
survived neurons as % compared to neurons grown in the presence of GDNF [2, 11]: 59.82 % GDNF
survived neurons as % compared to neurons grown in the presence of GDNF [2, 12]: 59.11 % GDNF
survived neurons as % compared to neurons grown in the presence of GDNF [2, 13]: 59.23 % GDNF
survived neurons as % compared to neurons grown in the presence of GDNF [2, 14]: 82.61 % GDNF
survived neurons as % compared to neurons grown in the presence of GDNF [2, 15]: 75.53 % GDNF
survived neurons as % compared to neurons grown in the presence of GDNF [2, 16]: 58.84 % GDNF
survived neurons as % compared to neurons grown in the presence of GDNF [2, 17]: 70.31 % GDNF
survived neurons as % compared to neurons grown in the presence of GDNF [2, 18]: 84.24 % GDNF
survived neurons as % compared to neurons grown in the presence of GDNF [2, 19]: 86.17 % GDNF
survived neurons as % compared to neurons grown in the presence of GDNF [2, 20]: 77.44 % GDNF
Fold change of survived neurons compared to neurons grown without growth factors ([2]; Table 4, AVG, 1 ng/ml): 1.06 fold
Fold change of survived neurons compared to neurons grown without growth factors ([2]; Table 4, AVG, 10 ng/ml): 1.23 fold
Fold change of survived neurons compared to neurons grown without growth factors ([2]; Table 4, AVG, 100 ng/ml): 1.19 fold
Fold change of survived neurons compared to neurons grown without growth factors ([2]; Table 4, AVG, 1000 ng/ml): 1.05 fold
Fold change of survived neurons compared to neurons grown without growth factors ([2]; Table 4, exp1, 1 ng/ml): 1.14 fold
Fold change of survived neurons compared to neurons grown without growth factors ([2]; Table 4, exp1, 10 ng/ml): 1.08 fold
Fold change of survived neurons compared to neurons grown without growth factors ([2]; Table 4, exp1, 100 ng/ml): 1.05 fold
Fold change of survived neurons compared to neurons grown without growth factors ([2]; Table 4, exp1, 1000 ng/ml): 1.03 fold
Fold change of survived neurons compared to neurons grown without growth factors ([2]; Table 4, exp2, 1 ng/ml): 0.94 fold
Fold change of survived neurons compared to neurons grown without growth factors ([2]; Table 4, exp2, 10 ng/ml): 1.31 fold
Fold change of survived neurons compared to neurons grown without growth factors ([2]; Table 4, exp2, 100 ng/ml): 1.20 fold
Fold change of survived neurons compared to neurons grown without growth factors ([2]; Table 4, exp2, 1000 ng/ml): 0.93 fold
Fold change of survived neurons compared to neurons grown without growth factors ([2]; Table 4, exp3, 1 ng/ml): 1.09 fold
Fold change of survived neurons compared to neurons grown without growth factors ([2]; Table 4, exp3, 10 ng/ml): 1.30 fold
Fold change of survived neurons compared to neurons grown without growth factors ([2]; Table 4, exp3, 100 ng/ml): 1.33 fold
Fold change of survived neurons compared to neurons grown without growth factors ([2]; Table 4, exp3, 1000 ng/ml): 1.20 fold
survived neurons as % compared to neurons grown in the presence of NGF [3, 21]: 81.78 % NGF
survived neurons as % compared to neurons grown in the presence of NGF [3, 22]: 86.36 % NGF
survived neurons as % compared to neurons grown in the presence of NGF [3, 23]: 77.19 % NGF
Fold change of survived neurons compared to neurons injected with PBS ([3]; Table 2, AVG): 2.23 Fold to PBS
Fold change of survived neurons compared to neurons injected with PBS ([3]; Table 2, exp1): 2.52 Fold to PBS
Fold change of survived neurons compared to neurons injected with PBS ([3]; Table 2, exp2): 1.94 Fold to PBS

^125I-CDNF: CDNF iodinated with 125I-Na using the lactoperoxidase method
internalization into dopamine neurons (radioactivity inside the cells) [4]: but not ^125I-CDNF is efficiently internalized
